# Data: ChEMBL document CHEMBL1201862, “PubChem BioAssay data set” (2004)
#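 Results reflect a 48-hour exposure of cells in 96-well plates to compound at five concentrations. GI50: concentration for 50% inhibition of growth.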 The source made the active and inactive calls. No stated cut-off is given here; in the data, active = GI50 up to about 1.1 µM and inactive = higher.
# Experiments:
# Assay in all cases: NCI-60 cell line screen, 48 h
# NCI-H460 = system: NCI-H460
# A498 = system: A498
# SK-OV-3 = system: SK-OV-3
# OVCAR-8 = system: OVCAR-8
# 786-0 = system: 786-0
# CAKI-1 = system: CAKI-1
# Hs-578T = system: Hs-578T
# UACC-257 = system: UACC-257
# MOLT-4 = system: MOLT-4
# PC-3 = system: PC-3
# HOP-92 = system: HOP-92
# COLO 205 = system: COLO 205
# SK-MEL-2 = system: SK-MEL-2
# HCT-15 = system: HCT-15
# NCI-H522 = system: NCI-H522
# ACHN = system: ACHN
# DU-145 = system: DU-145
# MDA-MB-231 = system: MDA-MB-231
# HCC 2998 = system: HCC 2998
# MCF7 = system: MCF7
# KM12 = system: KM12
# RPMI-8226 = system: RPMI-8226
# HOP-62 = system: HOP-62
# EKVX = system: EKVX
# TK-10 = system: TK-10
# OVCAR-5 = system: OVCAR-5
# SF-539 = system: SF-539
# MDA-MB-435 = system: MDA-MB-435
# SK-MEL-28 = system: SK-MEL-28
# HT-29 = system: HT-29
# RXF 393 = system: RXF 393
# SN12C = system: SN12C
# SNB-75 = system: SNB-75
# LOX IMVI = system: LOX IMVI
# NCI/ADR-RES = system: NCI/ADR-RES
# UO-31 = system: UO-31
# K562 = system: K562
# SK-MEL-5 = system: SK-MEL-5
# MDA-N = system: MDA-N
# NCI-H23 = system: NCI-H23
# SR = system: SR
# BT-549 = system: BT-549
# SF-295 = system: SF-295
# HL-60 = system: HL-60
# HCT-116 = system: HCT-116
# T47D = system: T47D
# Malme-3M = system: Malme-3M
# OVCAR-4 = system: OVCAR-4
# SF-268 = system: SF-268
# CCRF-CEM = system: CCRF-CEM
# SW-620 = system: SW-620
# A549 = system: A549
# IGROV-1 = system: IGROV-1
# NCI-H226 = system: NCI-H226
# UACC-62 = system: UACC-62
# OVCAR-3 = system: OVCAR-3
# U-251 = system: U-251
# SNB-19 = system: SNB-19
# M14 = system: M14
smiles,measurement,setting,value
O=c1c2ccccc2oc2c1ccc1ncccc12,GI50,NCI-H460,3.56 µM (inactive)
same,GI50,A498,5.01 µM (inactive)
same,GI50,SK-OV-3,6.38 µM (inactive)
same,GI50,OVCAR-8,11.8 µM (inactive)
same,GI50,786-0,12.3 µM (inactive)
same,GI50,CAKI-1,3.34 µM (inactive)
same,GI50,Hs-578T,11.9 µM (inactive)
same,GI50,UACC-257,20.7 µM (inactive)
same,GI50,MOLT-4,3.08 µM (inactive)
same,GI50,PC-3,22.4 µM (inactive)
same,GI50,HOP-92,5.53 µM (inactive)
same,GI50,COLO 205,17.3 µM (inactive)
same,GI50,SK-MEL-2,27.2 µM (inactive)
same,GI50,HCT-15,11.9 µM
same,GI50,NCI-H522,12.7 µM (inactive)
same,GI50,ACHN,5.55 µM (inactive)
same,GI50,DU-145,4.69 µM (inactive)
same,GI50,MDA-MB-231,26.8 µM (inactive)
same,GI50,HCC 2998,30.4 µM (inactive)
same,GI50,MCF7,8.55 µM (inactive)
same,GI50,KM12,24.2 µM (inactive)
same,GI50,RPMI-8226,15.4 µM (inactive)
same,GI50,HOP-62,15 µM (inactive)
same,GI50,EKVX,8.2 µM (inactive)
same,GI50,TK-10,6.73 µM (inactive)
same,GI50,OVCAR-5,1.4 µM (inactive)
same,GI50,SF-539,19.6 µM (inactive)
same,GI50,MDA-MB-435,25.7 µM (inactive)
same,GI50,SK-MEL-28,23 µM (inactive)
same,GI50,HT-29,14.5 µM (inactive)
same,GI50,RXF 393,13.4 µM (inactive)
same,GI50,SN12C,10.6 µM (inactive)
same,GI50,SNB-75,21.3 µM (inactive)
same,GI50,LOX IMVI,5.24 µM (inactive)
same,GI50,NCI/ADR-RES,10.4 µM (inactive)
same,GI50,UO-31,5.93 µM (inactive)
same,GI50,K562,24.7 µM (inactive)
same,GI50,SK-MEL-5,11.5 µM (inactive)
same,GI50,MDA-N,20 µM (inactive)
same,GI50,NCI-H23,16.2 µM (inactive)
same,GI50,SR,8.87 µM (inactive)
same,GI50,BT-549,17.8 µM (inactive)
same,GI50,SF-295,12.9 µM (inactive)
same,GI50,HL-60,9.35 µM (inactive)
same,GI50,HCT-116,6.34 µM (inactive)
same,GI50,T47D,12.1 µM (inactive)
same,GI50,Malme-3M,14.8 µM (inactive)
same,GI50,OVCAR-4,14.4 µM (inactive)
same,GI50,SF-268,17.2 µM (inactive)
same,GI50,CCRF-CEM,11.1 µM (inactive)
same,GI50,SW-620,10.7 µM (inactive)
same,GI50,A549,5.4 µM (inactive)
same,GI50,IGROV-1,11 µM (inactive)
same,GI50,NCI-H226,13.3 µM (inactive)
same,GI50,UACC-62,11 µM (inactive)
same,GI50,OVCAR-3,18 µM (inactive)
COC(=O)C(COC(=O)/C=C/c1ccc(OC(C)=O)c(OC(C)=O)c1)NC(=O)/C=C/c1ccc(OC(C)=O)c(OC(C)=O)c1 (configuration not stated),GI50,NCI-H460,21.3 µM (inactive)
same,GI50,A498,> 100 µM (inactive)
same,GI50,SK-OV-3,67 µM (inactive)
same,GI50,OVCAR-8,30.4 µM (inactive)
same,GI50,786-0,17.9 µM (inactive)
same,GI50,CAKI-1,18.5 µM (inactive)
same,GI50,Hs-578T,30.3 µM (inactive)
same,GI50,UACC-257,44.4 µM (inactive)
same,GI50,MOLT-4,38.3 µM (inactive)
same,GI50,PC-3,13.6 µM (inactive)
same,GI50,U-251,28.4 µM (inactive)
same,GI50,HOP-92,32.7 µM (inactive)
same,GI50,COLO 205,20.7 µM (inactive)
same,GI50,SK-MEL-2,18.3 µM (inactive)
same,GI50,HCT-15,25.5 µM
same,GI50,NCI-H522,18.1 µM (inactive)
same,GI50,ACHN,25.6 µM (inactive)
same,GI50,DU-145,20.8 µM (inactive)
same,GI50,SNB-19,22.9 µM (inactive)
same,GI50,MDA-MB-231,14.9 µM (inactive)
same,GI50,HCC 2998,19.4 µM (inactive)
same,GI50,MCF7,28.3 µM (inactive)
same,GI50,KM12,17.6 µM (inactive)
same,GI50,RPMI-8226,19.6 µM (inactive)
same,GI50,HOP-62,23 µM (inactive)
same,GI50,EKVX,25.5 µM (inactive)
same,GI50,OVCAR-5,38.7 µM (inactive)
same,GI50,SF-539,31.8 µM (inactive)
same,GI50,M14,17.6 µM (inactive)
same,GI50,MDA-MB-435,28.3 µM (inactive)
same,GI50,SK-MEL-28,26.2 µM (inactive)
same,GI50,HT-29,19.8 µM (inactive)
same,GI50,RXF 393,37.1 µM (inactive)
same,GI50,SN12C,19.6 µM (inactive)
same,GI50,SNB-75,29.9 µM (inactive)
same,GI50,LOX IMVI,16.3 µM (inactive)
same,GI50,NCI/ADR-RES,45.8 µM (inactive)
same,GI50,K562,> 100 µM (inactive)
same,GI50,SK-MEL-5,14.7 µM (inactive)
same,GI50,MDA-N,20.5 µM (inactive)
same,GI50,NCI-H23,25.9 µM (inactive)
same,GI50,SR,18 µM (inactive)
same,GI50,BT-549,25.2 µM (inactive)
same,GI50,HL-60,25.2 µM (inactive)
same,GI50,HCT-116,19.2 µM (inactive)
same,GI50,T47D,16.6 µM (inactive)
same,GI50,Malme-3M,11.3 µM (inactive)
same,GI50,OVCAR-4,20.7 µM (inactive)
same,GI50,SF-268,> 10 µM (inactive)
same,GI50,CCRF-CEM,16.1 µM (inactive)
same,GI50,SW-620,33.4 µM (inactive)
same,GI50,A549,40.9 µM (inactive)
same,GI50,IGROV-1,43.6 µM (inactive)
same,GI50,NCI-H226,36.2 µM (inactive)
same,GI50,UACC-62,15 µM (inactive)
same,GI50,OVCAR-3,15.4 µM (inactive)
